Data: patent US20070203212A1, “METHOD OF TREATING OSTEOARTHRITIS” (WARNER-LAMBERT COMPANY, priority 2002, published 2007)

How the values were obtained:
[1] = system: monosodium iodoacetate (MIA)-induced osteoarthritis; assay: MIA rat model, acute single oral dose: change in hind paw weight distribution (joint pain); type: in vivo; settings: for shift in weight bearing potential (joint pain) versus pre-dose: 2, 4 and 6 hours post administration
Procedure: It should be appreciated that in Biological Methods 1, 2, 4, and 5 below, hind paw weight bearing differentials between the paw of the limb having the control joint (in animals administered test compound vehicle only) and the paw of the limb having the contralateral test joint (in control or inducement animals administered test compound vehicle only and in treatment animals administered test compound dissolved in test compound vehicle) were determined using an incapacitance tester, model 2KG (Linton Instrumentation, Norfolk, United Kingdom). The incapacitance tester has a chamber on top with an outwardly sloping front wall that supports a rat's front limbs, and two weight sensing pads, one for each hind paw, that facilitates this determination. The hind paw weight bearing differentials were expressed in grams and calculated as follows: (the average weight in grams placed on the control limb minus the average weight in grams placed on the contralateral test limb for each of the inducement or treatment animals) minus (the average weight in grams placed on the control limb minus the average weight in grams placed on the contralateral test limb for each of the control animals). All results were statistically analyzed by comparing the average results for an induction or treatment group with the average result for its control group at the same time point using analysis of covariance (“ANCOVA”) followed by the Hoehberg's procedure and those with statistical significance had p<0.05 unless otherwise noted.
The rats were anesthetized with 5% volume/volume (“v/v”) isoflurane gas and maintained with 2% v/v isoflurane gas. The anesthetized rats were given a single intra-articular injection of 1 mg of MIA through the infrapatellar ligament of the right knee. MIA was dissolved in physiologic saline and administered in a volume of 50 μL. The contralateral control knee was injected with 50 μL of physiologic saline. Administration of isoflurane gas was discontinued, and the rats became fully conscious about 5 minutes later.
Shifts in hind paw weight distribution from the right to the left hind paws supporting the right (arthritic) and the left (contralateral control) hind leg knee joints were utilized as an index of joint pain and as a measure of compound efficacy. An incapacitance tester (Model 2KG, Linton Instrumentation, UK) was employed for determination of hind paw weight distribution. Each data point is the mean of three readings of 5 seconds duration.
CI-1027 (i.e., 6-(5-carboxy-5-methyl-hexyloxy)-2,2-dimethyl-hexanoic acid, calcium salt) was dissolved in hydroxypropylmethylcellulose (“HPMC”) vehicle (0.05% HPMC+0.2% Tween 80; compound amount was adjusted based on the percent of free acid, i.e., 6-(5-carboxy-5-methyl-hexyloxy)-2,2-dimethyl-hexanoic acid).
[…] Rats were then given a single, 10, 30, or 100 mg/kg, dose of CI-1027 via oral gavage (PO). Changes in hind paw weight distribution were determined 2, 4 and 6 hours post-compound administration.
6-(5-carboxy-5-methyl-hexyloxy)-2,2-dimethyl-hexanoic acid, calcium salt (“CI-1027”) and rofecoxib was tested in the rat MIA model in an acute dosing paradigm as described previously. MIA was injected into the right knee and saline into the left knee of all rats on Day 0. […] Two hours later, the rats were reassessed. The results for inhibition of pain, expressed as a percentage±standard error of the mean, are shown below in Table 5. The percent inhibition of pain was determined as described above in Biological Method 1. […] N=8 rats per group.

[2] = system: prostaglandin-F2a (PGF2a) expression; assay: PGF2a expression from calcium ionophore-stimulated rat basophilic leukemia cells; type: cell-based
[3] = system: monoclonal antibody-induced arthritis; assay: Monoclonal antibody-induced arthritis (MAIA) mouse model, footpad and ankle swelling; type: in vivo; settings: p<0.05 (FIG. 8)
Procedure: In a typical MAIA experiment, groups of four mice were injected intraperitoneally (“i.p.”) with 0.4 mL (BALB/c and DBA/1 strains) or 0.8 mL (C57BL/6, 129X1/SvJ, C3H/HeJ, and C3H/FeJ strains) with a 10 mg/mL solution of Arthrogen-CIA Monoclonal Antibody Blend (Chemicon International, Inc.). Two days later, the mice were injected i.p. with 0.2 mL of a 0.25 mg/mL solution of LPS (lipopolysaccharide form Escherichia coli (“E. coli”) strain 0111B4) in PBS. Footpad and ankle size was assessed using a Dyer Digital Caliper (#655-030-4916) on the day of mAb injection, and every two days following LPS injection.

[4] = system: carrageenan-induced thermal hyperalgesia; assay: Carrageenan-induced thermal hyperalgesia (CITH), paw withdrawal latency; type: in vivo, rat; settings: single oral dose 30 mg/kg on Day 1, 4 hours post dose
Procedure: Male Sprague Dawley rats (200-300 g), obtained from Charles River, were housed in groups of 2 under a 12 hour light/dark cycle with food and water ad libitum. Animals were allowed to acclimate to the test room one hour prior to testing.
Thermal hyperalgesia was assessed using the rat plantar test (apparatus from Univ. California, San Diego) following a modified method of Hargreaves et al., 1988. Rats were habituated to the apparatus, which consisted of three perspex boxes that individually housed […] on an elevated glass table. A mobile radiant heat source (halogen lamp) was located under the glass table and focused onto the hind paw. Paw withdrawal latencies (PWL) were recorded in seconds (“s”). An automatic cut off point of 22.5 s was set to prevent tissue damage. The mean of 2-3 PWL was taken at each time point for both hind paws of each animal. The apparatus was calibrated to give a PWL of approximately 10 s before carrageenan administration.
After basal PWL were determined, animals receive an intraplantar 100 μL of 10 mg/mL) into the right hind paw. Lambda carrageenan (Sigma Chemical Co.) was dissolved in isotonic saline 5 minutes prior to injecting. PWL were reassessed following the same protocol 2 hours post carrageenan (this time point represented the start of peak hyperalgesia) to ascertain that hyperalgesia had developed. 6-(5-Carboxy-5-methyl-hexyloxy)-2,2-dimethyl-hexanoic acid, calcium salt was then administered orally via oral dosing needles 2.5 hours post carrageenan injection, and PWL were taken again at 30- or 60-minute intervals post drug administration for 6 hours.
Data consisted of the mean of 2-3 reads/paw for individual animals. Group data was the compiled individual means. Percent inhibition was calculated as follows for each time point: (mean drug treated−mean control)/(mean baseline−mean control)×100.

CC(C)(CCCCOCCCCC(C)(C)C(=O)[O-])C(=O)[O-].[Ca+2] [CI-1027, 6-(5-carboxy-5-methyl-hexyloxy)-2,2-dimethyl-hexanoic acid, calcium salt] was tested, and the “shift in weight bearing potential (joint pain) versus pre-dose” value (from here on “shift in weight bearing potential”) ([1]; 10 mg/kg PO single dose on Day 14) was “did not significantly alter”, the “shift in weight bearing potential” value ([1]; 30 mg/kg PO single dose on Day 14) was “only the change at the 4-hour post dose time point was statistically significant” and the “shift in weight bearing potential” value ([1]; 100 mg/kg PO single dose on Day 14) was “statistically significant”. The “Mean pain alleviation at 2 hours post administration (% ± SEM)” value ([1]; CI-1027 10 mg/kg PO alone, Day 14) was 20 ± 9%, the “Inhibition of Pain (% versus control), MIA (acute)” value ([1]; single oral dose 30 mg/kg on Day 7, 4 hours post dose) was 67 ± 8% and the “inhibition of PGF2a expression” value [2] was “does not inhibit”. The “change in mouse ankle joint and paw swelling” value ([3]; 100 mg/kg oral daily, Day 7) was “inhibits a change in mouse ankle joint and paw swelling”, the “change in mouse ankle joint and paw swelling” value ([3]; 200 mg/kg oral daily, Days 4, 7 and 9) was “inhibits a change in mouse ankle joint and paw swelling” and the “Inhibition of Pain (% versus control), CITH (paw withdrawal latency)” value [4] was 65 ± 20%.
